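In this assay, cells in 96-well plates receive the compound at five concentrations for 48 hours. Endpoints are linearly interpolated between the surrounding concentrations. At the TGI there is no net growth.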
How the values were obtained:
Experiment in all cases: NCI anticancer screen, dose series, 48 h
M19-MEL melanoma = tested on: M19-MEL melanoma
K-562 leukemia = tested on: K-562 leukemia
NCI-H226 lung = tested on: NCI-H226 lung
IGROV1 ovarian = tested on: IGROV1 ovarian
KM20L2 colon = tested on: KM20L2 colon
UACC-257 melanoma = tested on: UACC-257 melanoma
CAKI-1 renal = tested on: CAKI-1 renal
UO-31 renal = tested on: UO-31 renal
HL-60(TB) leukemia = tested on: HL-60(TB) leukemia
HCT-116 colon = tested on: HCT-116 colon
EKVX NSCLC = tested on: EKVX NSCLC
CCRF-CEM leukemia = tested on: CCRF-CEM leukemia
NCI-H23 lung = tested on: NCI-H23 lung
OVCAR-5 ovarian = tested on: OVCAR-5 ovarian
DMS 114 small cell lung = tested on: DMS 114 small cell lung
RXF-631 renal = tested on: RXF-631 renal
LOX IMVI melanoma = tested on: LOX IMVI melanoma
A549 NSCLC = tested on: A549 NSCLC
SF-295 CNS = tested on: SF-295 CNS
786-0 renal = tested on: 786-0 renal
SNB-75 CNS = tested on: SNB-75 CNS
NCI-H460 lung = tested on: NCI-H460 lung
ACHN renal = tested on: ACHN renal
SN12C renal = tested on: SN12C renal
COLO 205 colon = tested on: COLO 205 colon
SF-268 CNS = tested on: SF-268 CNS
LXFL 529 NSCLC = tested on: LXFL 529 NSCLC
HOP-62 NSCLC = tested on: HOP-62 NSCLC
SNB-19 CNS = tested on: SNB-19 CNS
HOP-18 NSCLC = tested on: HOP-18 NSCLC
TK-10 renal = tested on: TK-10 renal
HT29 colon = tested on: HT29 colon
HOP-92 NSCLC = tested on: HOP-92 NSCLC
SW-620 colon = tested on: SW-620 colon
XF 498 CNS = tested on: XF 498 CNS
OVCAR-8 ovarian = tested on: OVCAR-8 ovarian
OVCAR-3 ovarian = tested on: OVCAR-3 ovarian
U251 CNS = tested on: U251 CNS
NCI-H522 lung = tested on: NCI-H522 lung
UACC-62 melanoma = tested on: UACC-62 melanoma
OVCAR-4 ovarian = tested on: OVCAR-4 ovarian
RXF 393 renal = tested on: RXF 393 renal
HCC-2998 colon = tested on: HCC-2998 colon
SK-MEL-2 melanoma = tested on: SK-MEL-2 melanoma
KM12 colon = tested on: KM12 colon
SK-MEL-5 melanoma = tested on: SK-MEL-5 melanoma
HCT-15 colon = tested on: HCT-15 colon
DLD-1 colon = tested on: DLD-1 colon
DMS 273 small cell lung = tested on: DMS 273 small cell lung
SF-539 CNS = tested on: SF-539 CNS
SK-MEL-28 melanoma = tested on: SK-MEL-28 melanoma
SNB-78 CNS = tested on: SNB-78 CNS
MALME-3M melanoma = tested on: MALME-3M melanoma
M14 melanoma = tested on: M14 melanoma
A498 renal = tested on: A498 renal
SK-OV-3 ovarian = tested on: SK-OV-3 ovarian
SR leukemia = tested on: SR leukemia
MOLT-4 leukemia = tested on: MOLT-4 leukemia

## Nc1ccc2c(c1)C(=O)N(OS(=O)(=O)c1ccccc1)C2=O
M19-MEL melanoma
  TGI: > 100 µM
K-562 leukemia
  TGI: > 100 µM
NCI-H226 lung
  TGI: > 100 µM
IGROV1 ovarian
  TGI: > 100 µM
KM20L2 colon
  TGI: > 100 µM
UACC-257 melanoma
  TGI: > 100 µM
CAKI-1 renal
  TGI: > 100 µM
UO-31 renal
  TGI: > 100 µM
HL-60(TB) leukemia
  TGI: > 100 µM
HCT-116 colon
  TGI: > 100 µM
EKVX NSCLC
  TGI: > 100 µM
CCRF-CEM leukemia
  TGI: > 100 µM
NCI-H23 lung
  TGI: > 100 µM
OVCAR-5 ovarian
  TGI: > 100 µM
DMS 114 small cell lung
  TGI: > 100 µM
RXF-631 renal
  TGI: > 100 µM
LOX IMVI melanoma
  TGI: > 100 µM
A549 NSCLC
  TGI: > 100 µM
SF-295 CNS
  TGI: > 100 µM
786-0 renal
  TGI: > 100 µM
SNB-75 CNS
  TGI: > 100 µM
NCI-H460 lung
  TGI: > 100 µM
ACHN renal
  TGI: > 100 µM
SN12C renal
  TGI: > 100 µM
COLO 205 colon
  TGI: > 100 µM
SF-268 CNS
  TGI: > 100 µM
LXFL 529 NSCLC
  TGI: > 100 µM
HOP-62 NSCLC
  TGI: > 100 µM
SNB-19 CNS
  TGI: > 100 µM
HOP-18 NSCLC
  TGI: > 100 µM
TK-10 renal
  TGI: > 100 µM
HT29 colon
  TGI: > 100 µM
HOP-92 NSCLC
  TGI: > 100 µM
SW-620 colon
  TGI: > 100 µM
XF 498 CNS
  TGI: > 100 µM
OVCAR-8 ovarian
  TGI: > 100 µM
OVCAR-3 ovarian
  TGI: > 100 µM
U251 CNS
  TGI: > 100 µM
NCI-H522 lung
  TGI: 60.7 µM
UACC-62 melanoma
  TGI: > 100 µM
OVCAR-4 ovarian
  TGI: > 100 µM
RXF 393 renal
  TGI: > 100 µM
HCC-2998 colon
  TGI: > 100 µM
SK-MEL-2 melanoma
  TGI: > 100 µM
KM12 colon
  TGI: > 100 µM
SK-MEL-5 melanoma
  TGI: > 100 µM
HCT-15 colon
  TGI: > 100 µM
DLD-1 colon
  TGI: > 100 µM
DMS 273 small cell lung
  TGI: > 100 µM
SF-539 CNS
  TGI: > 100 µM
SK-MEL-28 melanoma
  TGI: > 100 µM
SNB-78 CNS
  TGI: > 100 µM
MALME-3M melanoma
  TGI: > 100 µM
M14 melanoma
  TGI: > 100 µM
A498 renal
  TGI: > 100 µM
SK-OV-3 ovarian
  TGI: > 100 µM

## CCOC(=O)C1=C(NC(C)(C)C)OC/C1=N\NC(=O)Cc1ccccc1
M19-MEL melanoma
  TGI: > 100 µM
K-562 leukemia
  TGI: > 100 µM
NCI-H226 lung
  TGI: > 100 µM
IGROV1 ovarian
  TGI: > 100 µM
KM20L2 colon
  TGI: > 100 µM
UACC-257 melanoma
  TGI: > 100 µM
CAKI-1 renal
  TGI: > 100 µM
UO-31 renal
  TGI: > 100 µM
HL-60(TB) leukemia
  TGI: > 100 µM
HCT-116 colon
  TGI: > 100 µM
EKVX NSCLC
  TGI: > 100 µM
SR leukemia
  TGI: > 100 µM
CCRF-CEM leukemia
  TGI: > 100 µM
NCI-H23 lung
  TGI: > 100 µM
OVCAR-5 ovarian
  TGI: > 100 µM
DMS 114 small cell lung
  TGI: > 100 µM
RXF-631 renal
  TGI: > 100 µM
LOX IMVI melanoma
  TGI: > 100 µM
A549 NSCLC
  TGI: > 100 µM
SF-295 CNS
  TGI: > 100 µM
786-0 renal
  TGI: > 100 µM
SNB-75 CNS
  TGI: > 100 µM
NCI-H460 lung
  TGI: > 100 µM
ACHN renal
  TGI: > 100 µM
SN12C renal
  TGI: > 100 µM
COLO 205 colon
  TGI: > 100 µM
SF-268 CNS
  TGI: > 100 µM
LXFL 529 NSCLC
  TGI: > 100 µM
HOP-62 NSCLC
  TGI: > 100 µM
SNB-19 CNS
  TGI: > 100 µM
HOP-18 NSCLC
  TGI: > 100 µM
TK-10 renal
  TGI: > 100 µM
HT29 colon
  TGI: > 100 µM
HOP-92 NSCLC
  TGI: > 100 µM
SW-620 colon
  TGI: > 100 µM
XF 498 CNS
  TGI: > 100 µM
OVCAR-8 ovarian
  TGI: > 100 µM
OVCAR-3 ovarian
  TGI: > 100 µM
U251 CNS
  TGI: > 100 µM
NCI-H522 lung
  TGI: > 100 µM
UACC-62 melanoma
  TGI: > 100 µM
OVCAR-4 ovarian
  TGI: > 100 µM
RXF 393 renal
  TGI: > 100 µM
HCC-2998 colon
  TGI: > 100 µM
SK-MEL-2 melanoma
  TGI: > 100 µM
KM12 colon
  TGI: > 100 µM
SK-MEL-5 melanoma
  TGI: > 100 µM
HCT-15 colon
  TGI: > 100 µM
DLD-1 colon
  TGI: > 100 µM
MOLT-4 leukemia
  TGI: > 100 µM
DMS 273 small cell lung
  TGI: > 100 µM
SF-539 CNS
  TGI: > 100 µM
SK-MEL-28 melanoma
  TGI: > 100 µM
SNB-78 CNS
  TGI: > 100 µM
MALME-3M melanoma
  TGI: > 100 µM
M14 melanoma
  TGI: > 100 µM
A498 renal
  TGI: > 100 µM
SK-OV-3 ovarian
  TGI: > 100 µM

— PubChem BioAssay (NCI)
